Measurements published in patent publication US20220282325A1, “METHYLATION ASSAYS AND USES THEREOF” (The General Hospital Corporation, priority 2019, published 2022).

How the values were obtained:
HL-60 cells = test: XRBS DNA methylation profiling of decitabine-treated cells; assay type: cell-based, human; conditions: HL-60, 300 nM decitabine, five days
Protocol: (§1) In order to detect differential methylation across an isogenic system, cell lines were treated with 300 nM decitabine, which inhibits DNA methyltransferase enzymes through covalent entrapment on DNA (FIGS. 22A and 22B). HL-60 and OCI-AML3 were treated, as these had intermediate global methylation levels among the four cell lines examined, and profiled DNA methylation using expanded representation bisulfite sequencing (XRBS) (FIG. 22C).
(§2) For expanded representation bisulfite sequencing (XRBS) profiles, HL-60 and OCI-AML3 cells were treated with 300 nM decitabine in 6 well plates. Cells were harvested after 5 days and gDNA was extracted using Qiagen DNA Mini Blood Kit (51104). 10 ng of gDNA were used for each library preparation.
(§3) Before alignment, primer dimers were filtered using Cutadapt version 2.7 and the following parameters:--discard -a GCTCTTCCGATCT. Short read pairs were trimmed using TrimGalore version 0.6.5 and the following parameters: --paired --illumina --nextseq 20. Trimmed sequencing reads were then aligned to an in-silico bisulfate-converted reference genome (hg38 and mm10) using methylCtools version 1.0.0 and bwa mem version 0.7.17. […] Putative PCR duplicates were removed by considering the outer mapping position of both paired-end reads, as well as the random hexamer sequence that was trimmed prior to alignment and functioned as a unique molecular identifier (UMI). For library complexity analysis, alignments were downsampled prior to this step. DNA methylation calling was performed using methylCtools bcall and the --trimPE parameter. DNA methylation values, which are incorporated herein by reference for all purposes, were deposited on GEO (GSE149954, token: azujmeaezxqdxgr).
(§4) All downstream analyses were performed in R (version 3.6.2), making extensive use of the data.table and GenomicRanges packages. For many analyses, average DNA methylation values within genomic regions were used. Regions included CpG islands, promoters (1 kb up- and downstream of all transcription start sites of protein-coding genes), enhancers and CTCF binding sites (Encyclopedia of DNA Elements (ENCODE) narrowPeak files), and genomic 100 kb-windows. Average methylation values within these regions were calculated by summarizing calls for methylated and unmethylated CpGs across the entire region, and then calculating a single beta-value. For 100 kb-windows, CpGs within islands were not included. Minimum coverage thresholds were applied as indicated. Similarly, average methylation values were calculated for each genomic bin when visualized as heatmaps (genomic regions were separated in 100 equally-sized bins). Differential DNA methylation analysis was performed by sorting regions according to their difference in average methylation values (for enhancers and CTCF binding sites) or by applying a threshold (0.5) on the difference between the average methylation values of one cell line to the average of the other three cell lines (for promoters).

OCI-AML3 cells = test: as above; assay type: cell-based, human; conditions: OCI-AML3, 300 nM decitabine, five days, vs DMSO
Protocol: as §1, §2, §3, §4

Nc1ncn([C@H]2C[C@H](O)[C@@H](CO)O2)c(=O)n1 [decitabine]
decrease of DNA methylation levels in CpG islands (HL-60 cells; vs DMSO): 9.5%
decrease of DNA methylation levels in non-island CpGs (HL-60 cells; vs DMSO): 20.2%
reduction of average global methylation levels (HL-60 cells; vs DMSO): 19.1%
average methylation of non-island CpGs after decitabine treatment (HL-60 cells; DMSO control 68.1%): 54.3%
decrease of DNA methylation levels in CpG islands (OCI-AML3 cells): 11.2%
decrease of DNA methylation levels in non-island CpGs (OCI-AML3 cells): 14.0%
reduction of average global methylation levels (OCI-AML3 cells): 13.7%
